Reference: patent publication US6967196B1, “Sulfonamide compounds and uses thereof” (Bristol-Myers Squibb Company, priority 1999, dated 2005)
pIC50: −log10 of the molar value. Counter-ions that a name gives are not always drawn. Like-named read-outs stand apart in the source and are kept apart here.

System: amyloid β production in transfected H4 (human neuroglioma) cells stably expressing APP constructs
Assay: In vitro cell-based assay of inhibitors of amyloid β production (ELISA)
Settings: amyloid β in medium by ELISA, read-out: ACTIVITY (IC50, inhibition of amyloid β production)
Outline: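 Aβ secreted into the medium was read by sandwich ELISA (monoclonal capture for the Aβ C-terminus, polyclonal detection for the N-terminus) and calibrated on a standard curve. Before this, APP-expressing H4 cells were exposed to compound for ~16 h at an initial 10-100 μM, with actives then retested in dose-response.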

[1] = transfected H4 cells stably expressing APP constructs, approximately 16 hours incubation
[2] = transfected H4 cells stably expressing APP, approximately 16 hours incubation, Table B
[3] = Homo sapiens, 16 h, transfected H4 cells expressing APP, approximately 16 hours incubation
[4] = Homo sapiens, 16 h, transfected H4 cells stably expressing APP constructs, approximately 16 hours incubation
[5] = transfected H4 cells stably expressing APP, approx. 16 h incubation
[6] = Homo sapiens, 16 h, transfected H4 cells stably expressing APP, approximately 16 hours incubation
[7] = Homo sapiens, 16 h, transfected H4 cells stably expressing APP, approx. 16 h incubation

## CC1CS(=O)(=O)CCN1CCCCC[C@@H](C)N(c1cc(Cl)ccc1F)S(=O)(=O)c1ccc(Cl)cc1 (stereo partly drawn) [Example 1275]
[1]
  pIC50: ≥ 7.60

## COC(=O)[C@H](CSCCCc1cc(F)ccc1[C@@H](C)N(c1cc(F)ccc1F)S(=O)(=O)c1ccc(Cl)cc1)NC(=O)OC(C)(C)C [Example 485]
[2]
  pIC50: 6.30 to 7.00

## C[C@H](C(=O)NCc1ccco1)C(c1cc(Cl)ccc1F)S(=O)(=O)c1ccc(Cl)cc1 (stereo partly drawn) [Example 1300]
[3]
  pIC50: 6.30 to 7.00

## C[C@H](COC(=O)N1CCCC1)N(c1cc(Cl)ccc1Cl)S(=O)(=O)c1ccc(Cl)cc1 [Example 1237, 4-Chloro-N-(2,5-dichlorophenyl)-N-[2-[[[pyrrolidin-1-yl]carbonyl]oxy]-R-1-methylethyl]benzenesulfonamide]
[4]
  pIC50: ≥ 7.60

## CC(C)CC(=O)N(C)CCCOc1ccccc1CN(c1cc(F)ccc1F)S(=O)(=O)c1ccc(Cl)cc1 [Example 791, N-{3-[2-({[(4-chlorophenyl)sulfonyl]-2,5-difluoroanilino}methyl)phenoxy]propyl}-N,3-dimethylbutamide]
[5]
  pIC50: 6.30 to 7.00

## CC(C)CNC(=O)OCc1cc(F)ccc1[C@@H](C)N(c1cc(F)ccc1F)S(=O)(=O)c1ccc(Cl)cc1 [Example 398, 2-((1R)-1-{[(4-chlorophenyl)sulfonyl]-2,5-difluoroanilino}ethyl)-5-fluorobenzyl isobutylcarbamate]
Homo sapiens, 16 h, transfected H4 cells stably expressing APP, approximately 16 hours incubation, Table B
  pIC50: 7.00 to 7.30

## C[C@H](CCN1CCCC(CS(C)(=O)=O)C1)N(c1cc(Cl)ccc1Cl)S(=O)(=O)c1ccc(Cl)cc1 (stereo partly drawn) [Example 1151, 4-chloro-N-(2,5-dichlorophenyl)-N-[3-[(3-(methylsulfonyl)methyl]-1-piperidinyl]-1(R)-methylpropyl)benzenesulfonamide]
[1]
  pIC50: 6.30 to 7.00

## N-{3-[2-(1-{[(4-chlorophenyl)sulfonyl]-2,5-difluoroanilino}ethyl)phenoxy]propyl}-4-fluorobenzamide [Example 679]
[5]
  pIC50: 6.30 to 7.00

## O=S(=O)(c1ccc(Cl)cc1)N(Cc1ccccc1OCCC1CCCCN1Cc1cccc(F)c1F)c1cc(F)ccc1F (stereo not drawn) [Example 933, 4-chloro-N-(2-{2-[1-(2,3-difluorobenzyl)-2-piperidinyl]ethoxy}benzyl)-N-(2,5-difluorophenyl)benzenesulfonamide]
[6]
  pIC50: < 6.30

## O=C1CCCC(=O)N1CCCOc1ccccc1CN(c1cc(F)ccc1F)S(=O)(=O)c1ccc(Cl)cc1 [Example 704, 4-chloro-N-(2,5-difluorophenyl)-N-{2-[3-(2,6-dioxo-1-piperidinyl)propoxy]benzyl}benzenesulfonamide]
[7]
  pIC50: 6.30 to 7.00

## O=S(=O)(c1ccc(Cl)cc1)N(Cc1ccccc1OCCCN1CCc2ccccc2C1)c1ccccc1 [Example 999, 4-chloro-N-{2-[3-(3,4-dihydro-2(1H)-isoquinolinyl)propoxy]benzyl}-N-phenylbenzenesulfonamide]
[6]
  pIC50: < 6.30

## O=S(=O)(c1ccc(Cl)cc1)N(Cc1ccccc1OCCCN1CCCCC1)c1ccc(Br)cc1 [Example 988, N-(4-bromophenyl)-4-chloro-N-{2-[3-(1-piperidinyl)propoxy]benzyl}benzenesulfonamide hydrochloride]
[6]
  pIC50: < 6.30

## O=S(=O)(c1ccc(Cl)cc1)N(Cc1ccccc1OCCCNC1CC1)c1ccccc1 [Example 979, 4-chloro-N-{2-[3-(cyclopropylamino)propoxy]benzyl}-N-phenylbenzenesulfonamide hydrochloride]
[6]
  pIC50: < 6.30

## 4-chloro-N-(2,5-dichlorophenyl)-N-[5-(1,1-dioxido-4-thiomorpholinyl)-1(R)-methylpropyl]benzenesulfonamide [Example 1104]
[1]
  pIC50: ≥ 7.60

## CNS(=O)(=O)CCC[C@@H](C)N(c1cc(F)ccc1F)S(=O)(=O)c1ccc(Cl)cc1 [Example 1207, 4-chloro-N-[2,5-difluorophenyl]-N-[4-[(methylamino)sulfonyl]-1(R)-methylbutyl]benzenesulfonamide]
[4]
  pIC50: ≥ 7.60

## CC(c1ccccc1OCCN(C)S(=O)(=O)C(C)C)N(c1cc(F)ccc1F)S(=O)(=O)c1ccc(Cl)cc1 (stereo not drawn) [Example 735, 4-chloro-N-(2,5-difluorophenyl)-N-[1-(2-{2-[(isopropylsulfonyl)(methyl)amino]ethoxy}phenyl)ethyl]benzenesulfonamide]
[7]
  pIC50: 6.30 to 7.00

## (2Z)-N-{3-[2-(1-{[(4-chlorophenyl)sulfonyl]-2,5-difluoroanilino}ethyl)phenoxy]propyl}-3-phenyl-2-propenamide [Example 732]
[5]
  pIC50: 6.30 to 7.00

## 3-[2-((1R)-1-{[(4-chlorophenyl)sulfonyl]-2,5-difluoroanilino}ethyl)phenyl]-N-isopropylpropanamide [Example 655]
[5]
  pIC50: 6.30 to 7.00

## C[C@H](CCCN1CCCC(S(C)(=O)=O)C1)N(c1cc(Cl)ccc1Cl)S(=O)(=O)c1ccc(Cl)cc1 (stereo partly drawn) [Example 1136]
[1]
  pIC50: 6.30 to 7.00

## COC(=O)CCSCCc1cc(F)ccc1[C@@H](C)N(c1cc(F)ccc1F)S(=O)(=O)c1ccc(Cl)cc1 [Example 473]
[2]
  pIC50: 7.00 to 7.30

## CNS(=O)(=O)CCC[C@@H](C)N(c1cc(Cl)ccc1CO)S(=O)(=O)c1ccc(Cl)cc1 [Example 1233, 4-chloro-N-[5-chloro-2-(hydroxymethyl)phenyl]-N-[4-[(methylamino)sulfonyl]-1(R)-methylbutyl]benzenesulfonamide]
[4]
  pIC50: ≥ 7.60

## C[C@H](C(=O)NCCCN1CCOCC1)N(c1cc(Cl)ccc1F)S(=O)(=O)c1ccc(Cl)cc1 [Example 1322]
[3]
  pIC50: < 6.30

## C[C@H](c1ccccc1OCCCN)N(c1cc(F)ccc1F)S(=O)(=O)c1cccc(Cl)c1 [Example 836, N-{(1R)-1-[2-(3-aminopropoxy)phenyl}ethyl}-3-chloro-N-(2,5-difluorophenyl)benzenesulfonamide]
[6]
  pIC50: 6.30 to 7.00

## CC(C)NC(=O)OC[C@@H](C)N(c1cc(Cl)ccc1CO)S(=O)(=O)c1ccc(Cl)cc1 [Example 1286]
[3]
  pIC50: ≥ 7.60

## C[C@H](C(=O)NCc1ccncc1)N(c1cc(Cl)ccc1F)S(=O)(=O)c1ccc(Cl)cc1 [Example 1313]
[3]
  pIC50: 6.30 to 7.00

## O=S(=O)(c1ccc(Cl)cc1)N(Cc1cc(Cl)ccc1OCCCN1CCC(O)CC1)c1ccccc1 [Example 1011, 4-chloro-N-{5-chloro-2-[3-(4-hydroxy-1-piperidinyl)propoxy]benzyl}-N-phenylbenzenesulfonamide hydrochloride]
[6]
  pIC50: < 6.30

## C[C@H](c1ccc(F)cc1CCS(=O)(=O)CCC(=O)O)N(c1cc(F)ccc1F)S(=O)(=O)c1ccc(Cl)cc1 [Example 475, 3-({2-[2-((1R)-1-{[(4-chloro-phenyl)sulfonyl]-2,5-difluoroanilino}ethyl)-5-fluorophenyl]ethyl}sulfonyl)propanoic Acid]
[2]
  pIC50: 6.30 to 7.00

## 2-bromo-N-{3-(2-({[(4-chlorophenyl)sulfonyl]-2,5-difluoroanilino}methyl)phenoxy]propyl}-N-methylbenzamide [Example 641]
[5]
  pIC50: 6.30 to 7.00

## C[C@H](CCCNC(=O)[C@H](O)c1ccccc1)N(c1cc(Cl)ccc1Cl)S(=O)(=O)c1ccc(Cl)cc1 [Example 1129]
[1]
  pIC50: 7.00 to 7.30

## C[C@H](CCCS(=O)(=O)N1CCCC1)N(c1cc(Cl)ccc1Cl)S(=O)(=O)c1ccc(Cl)cc1 [Example 1204, 4-chloro-N-[2,5-dichlorophenyl]-N-[4-[(1-pyrrolidinyl)sulfonyl]-1(R)-methylbutyl]benzenesulfonamide]
[4]
  pIC50: ≥ 7.60

## CCOC(=O)CCCc1ccccc1CN(c1ccccc1)S(=O)(=O)c1ccccc1[N+](=O)[O-] [Example 1096, ethyl 4-[2-({[(2-ntrophenyl)sulfonyl]anilino}methyl)phenyl]butanoate]
[1]
  pIC50: < 5.00

## O=S(=O)(c1ccc(Cl)cc1)N(Cc1ccccc1OCCCN1CCCCC1)C1CC1 [Example 1003, 4-chloro-N-cyclopropyl-N-{2-[3-(1-piperidinyl)propoxy]benzyl}benzenesulfonamide hydrochloride]
[6]
  pIC50: < 6.30

## C[C@H](CCCS(N)(=O)=O)N(c1cc(Cl)ccc1Cl)S(=O)(=O)c1ccc(Cl)cc1 [Example 1210, N-[4-(aminosulfonyl)-1(R)-methylbutyl]-4-chloro-N-(2,5-dichlorophenyl)benzenesulfonamide]
[4]
  pIC50: ≥ 7.60

## C[C@H](CCCNC(=O)c1ccccc1)N(c1cc(Cl)ccc1Cl)S(=O)(=O)c1ccc(Cl)cc1 [Example 1149, 4-chloro-N-(2,5-dichlorophenyl)-N-[4-[[(phenyl)carbonyl]amino]-1-methylbutyl]benzenesulfonamide]
[4]
  pIC50: 6.30 to 7.00

## C[C@H](c1ccc(F)cc1CCCC1=NCCCN1)N(c1cc(F)ccc1F)S(=O)(=O)c1ccc(Cl)cc1 [Example 1008, 4-chloro-N-(2,5-difluorophenyl)-N-((1R)-1-{4-fluoro-2-[3-(1,4,5,6-tetrahydro-2-pyrimidinyl)propyl]phenyl}ethyl)benzenesulfonamide hydrochloride]
[6]
  pIC50: < 6.30

## C[C@H](c1ccc(F)cc1CS(=O)(=O)CCC(=O)O)N(c1cc(F)ccc1F)S(=O)(=O)c1ccc(Cl)cc1 [Example 467, 3-{[2-((1R)-1-{[(4-chlorophenyl)sulfonyl]-2,5-difluoroanilino}ethyl)-5-fluorobenzyl]sulfonyl}propanoic Acid]
[2]
  pIC50: 7.00 to 7.30
